{
  "source": "paper PMC7570852",
  "about": "“Ruthenium(II)/(III) DMSO-Based Complexes of 2-Aminophenyl Benzimidazole with In Vitro and In Vivo Anticancer Activity” (Molecules, 2020)",
  "key": {"CT DNA (EB-DNA adduct)": {"system": "CT DNA (EB-DNA adduct)", "experiment": "Ethidium bromide (EB-DNA) competitive fluorescence assay", "type": "binding, calf", "conditions": "[DNA] = [EB] = 5 μM", "experimental": "The binding affinity of the metal complexes towards CT DNA was evaluated using competitive fluorescence studies. CT DNA pretreated with ethidium bromide (EB) ([DNA] = [EB] = 5 μM) in Tris-HCl/NaCl buffer (pH = 7.2) was incubated with the complexes in concentrations of 0–90 μM. […] The quenching of EB-DNA adduct fluorescence was followed by monitoring the emission spectra in the wavelength range of 530–650 nm. Upon addition of the metal complexes to the EB-DNA adduct, the quenching binding constant (Kq) at λ = 585 nm is determined from the Stern-Volmer Equation (2):I0/I = 1 + Kq[Q](2) where I0 and I are the fluorescence intensities of EB-DNA in the […] of the metal complexes, respectively, [Q] is the concentration of the tested compounds, and Kq is the quenching constant calculated from the slope of the straight line obtained from plotting Io/I vs. [Q]. In addition, the apparent binding constant can be calculated from Equation (3):KEB[EB] = Kapp[Q](3) where KEB = 1 × 10^7 M^−1 [EB] is the ethidium bromide concentration (5 μM) and [Q] is the concentration of the quencher that provides a 50% intensity reduction of the initial EB-DNA adduct."}, "[1]": {"system": "Ehrlich ascites carcinoma (EAC)", "experiment": "Serum liver and kidney function tests, EAC-bearing mice", "type": "in vivo", "conditions": "mean ± SEM", "experimental": "(§1) The mice were divided into the following eight groups (10 mice in each group): • Control group: Mice were intraperitoneally injected with a vehicle (2% DMSO + sterile saline) for 12 days. • I, II, and III control groups: Healthy normal mice were intraperitoneally injected with 6, 12, and 18 mg/kg of complex (2), respectively, for 12 days. • EAC group: Mice were intraperitoneally injected by a single dose of 2.5 × 10^6 viable Ehrlich ascites carcinoma (EAC) cells in PBS. In brief, EAC cells were withdrawn from the EAC mouse’s intraperitoneal cavity, washed, and centrifuged three times with sterile saline. Then, the pellets were suspended in sterile PBS and counted by the trypan blue exclusion assay, which confirmed that the viability of the cells was 98%. • I, II, and III treated groups: Firstly, 30 healthy mice were intraperitoneally injected with a single dose of 2.5 × 10^6 viable EAC cells. After one day; the mice were divided into I, II, and III treated groups (10 mice each group), intraperitoneally injected with 6, 12, and 18 mg/kg Ru(III) complex, respectively, for 12 days.\n(§2) The animals were monitored for EAC growth by measuring abdominal size. At the end of the experiment all animals were fasted overnight then sacrificed. Serum samples were collected to study the biological parameters such as liver and kidney function as well as antioxidant enzyme activity. Liver samples from each group were frozen immediately in liquid nitrogen for molecular analysis.\n(§3) Liver function tests. Serum GPT and GOT activities were measured by the method of Murray with a standard kit. The enzyme activities were estimated by measuring the decrease in absorbance of NADH at 340 nm. Bilirubin concentration was estimated by the colorimetric method of Kaplan et al.. Albumin concentration was measured colorimetrically by the color change of bromocresol from yellow-green to green-blue.\n(§4) Kidney function tests. Creatinine was estimated colorimetrically by reacting with alkaline picrate forming a red complex. Urea was hydrolyzed enzymatically into ammonia which reacts with several compounds to form a green complex that can be measured colorimetrically. Uric acid was estimated by the enzymatic method of Schultz."}, "[2]": {"experiment": "Median lethal dose (LD50) determination", "type": "in vivo", "conditions": "mice, intraperitoneal, mortality after 24 h", "experimental": "The LD50 was estimated by the method of Enegide. Briefly, different concentrations of compound (2) was prepared by dissolving a certain weight in 2% DMSO and completed with sterile saline then vortexed and left for 5 min until the solution was clear. Three hundred µL of each concentration (10, 20, 40, 60, 80, 100, 120, and 140 mg/kg) was injected intraperitoneally to eight groups of mice (each one containing four mice), then mortality was recorded after 24 h."}, "[3]": {"experiment": "Maximum tolerated dose in healthy mice", "type": "in vivo", "experimental": "These mice were examined daily for any sign of toxicity and weighed every two days. […] Therefore, doses of 6, 12, and 18 mg/kg were used in subsequent experiments."}, "[4]": {"experiment": "Serum liver and kidney function tests, healthy mice", "type": "in vivo", "conditions": "mean ± SEM", "experimental": "as §1, §2, §3, §4"}, "[5]": {"conditions": "II treated 12 mg/kg i.p. 12 days"}, "[6]": {"conditions": "III treated 18 mg/kg i.p. 12 days"}, "[7]": {"conditions": "II control 12 mg/kg i.p. 12 days"}, "[8]": {"conditions": "III control 18 mg/kg i.p. 12 days"}},
  "note": "Marks after values point to notes of the source that are not given here.",
  "data": [
    {"smiles": "CS(C)=O.Nc1ccccc1-c1nc2ccccc2[nH]1.O.[Cl][Ru]([Cl])[Cl]", "note": "[(2), [Ru(III)Cl3(DMSO)(Hapbim)]·H2O]", "values": [
      {"measurement": "Kapp (apparent binding constant)", "setting": "CT DNA (EB-DNA adduct); KEB = 1 × 10^7 M^−1", "result": "1.72 ± 0.28 × 10^7 M^−1"},
      {"measurement": "Kq (quenching constant)", "setting": "CT DNA (EB-DNA adduct); Stern-Volmer, 585 nm", "result": "8.64 ± 0.15 × 10^3 M^−1"},
      {"measurement": "Albumin", "setting": "[1]; I treated 6 mg/kg i.p. 12 days", "result": "0.9 ± 0.03", "unit": "g/dL"},
      {"measurement": "Bilirubin", "setting": "[1]; I treated 6 mg/kg i.p. 12 days", "result": "0.18 ± 0.03", "unit": "mg/dL"},
      {"measurement": "Creatinine", "setting": "[1]; I treated 6 mg/kg i.p. 12 days", "result": "0.7 ± 0.01", "unit": "mg/dL"},
      {"measurement": "GOT", "setting": "[1]; I treated 6 mg/kg i.p. 12 days", "result": "248 ± 15.6 ^a U/L"},
      {"measurement": "GPT", "setting": "[1]; I treated 6 mg/kg i.p. 12 days", "result": "15.2 ± 0.7", "unit": "U/L"},
      {"measurement": "Urea", "setting": "[1]; I treated 6 mg/kg i.p. 12 days", "result": "34.5 ± 0.4", "unit": "mg/dL"},
      {"measurement": "Uric Acid", "setting": "[1]; I treated 6 mg/kg i.p. 12 days", "result": "2.6 ± 0.1", "unit": "mg/dL"},
      {"measurement": "Albumin", "setting": "[1]; [5]", "result": "2.7 ± 0.3", "unit": "g/dL"},
      {"measurement": "Bilirubin", "setting": "[1]; [5]", "result": "0.2 ± 0.03", "unit": "mg/dL"},
      {"measurement": "Creatinine", "setting": "[1]; [5]", "result": "0.7 ± 0.1", "unit": "mg/dL"},
      {"measurement": "GOT", "setting": "[1]; [5]", "result": "179 ± 10.8", "unit": "U/L"},
      {"measurement": "GPT", "setting": "[1]; [5]", "result": "17.8 ± 0.6", "unit": "U/L"},
      {"measurement": "Urea", "setting": "[1]; [5]", "result": "34.2 ± 0.6", "unit": "mg/dL"},
      {"measurement": "Uric Acid", "setting": "[1]; [5]", "result": "2.7 ± 0.1", "unit": "mg/dL"},
      {"measurement": "Albumin", "setting": "[1]; [6]", "result": "2.6 ± 0.1", "unit": "g/dL"},
      {"measurement": "Bilirubin", "setting": "[1]; [6]", "result": "0.18 ± 0.02", "unit": "mg/dL"},
      {"measurement": "Creatinine", "setting": "[1]; [6]", "result": "1 ± 0.1 ^a mg/dL"},
      {"measurement": "GOT", "setting": "[1]; [6]", "result": "145 ± 39.3", "unit": "U/L"},
      {"measurement": "GPT", "setting": "[1]; [6]", "result": "31.9 ± 7.8", "unit": "U/L"},
      {"measurement": "Urea", "setting": "[1]; [6]", "result": "33.3 ± 1.2", "unit": "mg/dL"},
      {"measurement": "Uric Acid", "setting": "[1]; [6]", "result": "2.8 ± 0.1", "unit": "mg/dL"},
      {"measurement": "LD50", "setting": "[2]", "result": 60, "unit": "mg/kg"},
      {"measurement": "toxicity on repeated dosing", "setting": "[3]; healthy mice, 6, 12 and 18 mg/kg i.p., until the 12th day", "result": "No weight loss or signs of toxicity"},
      {"measurement": "toxicity on repeated dosing", "setting": "[3]; healthy mice, 30 and 40 mg/kg i.p.", "result": "toxic after 3-5 days and all the animals were dead on the fifth day"},
      {"measurement": "Albumin", "setting": "[4]; I control 6 mg/kg i.p. 12 days", "result": "2.3 ± 0.1", "unit": "g/dL"},
      {"measurement": "Bilirubin", "setting": "[4]; I control 6 mg/kg i.p. 12 days", "result": "0.15 ±0.02 ^b mg/dL"},
      {"measurement": "Creatinine", "setting": "[4]; I control 6 mg/kg i.p. 12 days", "result": "0.37 ±0.1 ^b mg/dL"},
      {"measurement": "GOT", "setting": "[4]; I control 6 mg/kg i.p. 12 days", "result": "41.8 ± 2.9 ^b U/L"},
      {"measurement": "GPT", "setting": "[4]; I control 6 mg/kg i.p. 12 days", "result": "15.6 ± 1.6 ^b U/L"},
      {"measurement": "Urea", "setting": "[4]; I control 6 mg/kg i.p. 12 days", "result": "33.5 ± 0.7 ^b mg/dL"},
      {"measurement": "Uric Acid", "setting": "[4]; I control 6 mg/kg i.p. 12 days", "result": "2.9 ± 0.1 ^b mg/dL"},
      {"measurement": "Albumin", "setting": "[4]; [7]", "result": "2.7 ± 0.1 ^b g/dL"},
      {"measurement": "Bilirubin", "setting": "[4]; [7]", "result": "0.13 ± 0.02 ^b mg/dL"},
      {"measurement": "Creatinine", "setting": "[4]; [7]", "result": "0.7 ± 0.02", "unit": "mg/dL"},
      {"measurement": "GOT", "setting": "[4]; [7]", "result": "54.9 ± 2.2", "unit": "U/L"},
      {"measurement": "GPT", "setting": "[4]; [7]", "result": "17.2 ± 0.5 ^b U/L"},
      {"measurement": "Urea", "setting": "[4]; [7]", "result": "31.7 ± 1.2 ^b mg/dL"},
      {"measurement": "Uric Acid", "setting": "[4]; [7]", "result": "2.97 ± 0.1 ^b mg/dL"},
      {"measurement": "Albumin", "setting": "[4]; [8]", "result": "2.3 ± 0.1", "unit": "g/dL"},
      {"measurement": "Bilirubin", "setting": "[4]; [8]", "result": "0.26 ± 0.02", "unit": "mg/dL"},
      {"measurement": "Creatinine", "setting": "[4]; [8]", "result": "0.75 ± 0.02", "unit": "mg/dL"},
      {"measurement": "GOT", "setting": "[4]; [8]", "result": "68.8 ± 3.6", "unit": "U/L"},
      {"measurement": "GPT", "setting": "[4]; [8]", "result": "19.6 ± 0.3", "unit": "U/L"},
      {"measurement": "Urea", "setting": "[4]; [8]", "result": "36.7 ± 1.6 ^b mg/dL"},
      {"measurement": "Uric Acid", "setting": "[4]; [8]", "result": "2.77 ± 0.1 ^b mg/dL"}
    ]}
  ]
}
